Measured values published in US20230348450A1, “CARBOXYLIC ACID-CONTAINING COMPOUNDS AS MODULATORS OF BIS-PHOSPHOGLYCERATE MUTASE FOR THE TREATMENT OF SICKLE CELL DISEASE” (Genzyme Corporation, priority 2020, published 2023).

Columns and labels:
[1] = molecular target: human Bisphosphoglycerate mutase (hBPGM) (Homo sapiens (Human), UniProt P07738); experiment: BPGM Phosphatase Assay; assay type: biochemical; details: Table 6 additional results; read-out: huBPGM: phosphatase Enzyme EC50
Description: Solutions of the test compounds were then added to the plate and the DMSO content was normalized across the plate. The plate was incubated at RT for 15 min. Next, the substrate 2,3-BPG (5 μL) was added to all the wells, and the plate was sealed and incubated for 24 hr at RT. After incubation, BIOMOL green dye (40 μL) was added to all the wells, the plate was shaken to mix, and the plate was incubated at RT for 20-30 min.

hBPGM = hBPGM (Homo sapiens (Human), UniProt P07738); experiment: BPGM Synthase Assay; assay type: biochemical; details: Table 6 additional results; read-out: huBPGM: synthase Enzyme IC50
hBPGM, sequence (P07738 whole entry, looked up): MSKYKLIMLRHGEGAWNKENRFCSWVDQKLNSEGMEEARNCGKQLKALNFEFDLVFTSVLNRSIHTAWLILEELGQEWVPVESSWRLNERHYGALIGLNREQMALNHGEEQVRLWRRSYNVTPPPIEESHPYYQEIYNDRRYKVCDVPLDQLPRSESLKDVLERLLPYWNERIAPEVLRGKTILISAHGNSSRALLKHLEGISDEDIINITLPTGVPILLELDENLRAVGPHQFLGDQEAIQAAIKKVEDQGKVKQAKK
Outline: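 BPGM (5 nM) with GAPDH (0.4 U/mL) was incubated with compound for 30 min at RT in pH 7.4 Tris buffer with 3.23 mM KH2PO4 and 1 mM DTT. Reaction ran 60 min with NAD, 3PG and GAP (substrate solution 2 mM, 20 μM and 800 μM). After koningic acid stop, NADH fluorescence was read, then resorufin from diaphorase/resazurin coupling.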

human Bisphosphoglycerate mutase (hBPGM), sequence (P07738 whole entry): as the sequence (P07738 whole entry, looked up) above

Row | Compound | EC50 [1] [nM] | IC50 (hBPGM) [nM]
1 | Cc1nc(Cc2ccncc2)sc1-c1cccc(-c2ccc(C(=O)O)c(O)c2)c1 [Example 281] | 120 | 730
2 | Cc1nc(CNC(=O)C2CC2)sc1-c1cccc(-c2cc(O)c(C(=O)O)cc2F)n1 [Example 236] | 360 | 130
3 | COC(=O)NCc1nc(C)c(-c2csc(-c3cc(O)c(C(=O)NCC(=O)O)cc3F)n2)s1 [Example 191] | 570 | 780
4 | COC(=O)NCc1nc(C)c(-c2csc(-c3cc(O)c(CC(=O)O)cc3F)n2)s1 [Example 116] | > 25000 | 6900
5 | Cc1nc(COc2ccccn2)sc1-c1cccc(-c2ccc(C(=O)O)cc2)c1 [Example 72] | > 25000 | 480
6 | Cc1nc(CNC(=O)c2ccn(C)n2)sc1-c1csc(-c2cc(O)c(C(=O)O)cc2F)n1 [Example 173] | 100 | 49
7 | Cc1nc(CNC(=O)C2CC2)sc1-c1cccc(-c2ccc(C(=O)O)c(O)c2)c1 [Example 276] | 590 | 480
8 | COC(=O)NCc1nc(C)c(-c2csc(-c3cc(O)c(C(=O)O)c(F)c3F)n2)s1 [Example 135] | 70 | 40
9 | Cc1nc(CNC(=O)C(=O)N(C)C)sc1-c1csc(-c2cc(O)c(C(=O)O)cc2F)n1 [Example 203] | 980 | 210
10 | Cc1nc(COc2cccnc2)sc1-c1cccc(-c2ccc(C(=O)O)c(O)c2)c1 [Example 102] | 360 | 900
11 | Cc1nc(Cc2ccn(C)n2)sc1-c1csc(-c2cc(O)c(C(=O)O)cc2F)n1 [Example 160] | 130 | 65
12 | Cc1nc(COc2ncccn2)sc1-c1cccc(-c2cnc(C(=O)O)s2)n1 [Example 94] | > 25000 | 11000
13 | Cc1cnc(OCc2nc(C)c(-c3csc(-c4cc(O)c(C(=O)O)cc4F)n3)s2)nc1 [Example 132] | 50 | 45
14 | Cc1nc(Cn2ccccc2=O)sc1-c1cccc(-c2ccc(C(=O)O)c(O)c2)n1 [Example 101] | 7300 | 760
15 | COC(=O)NCc1nc(C)c(-c2csc(-c3ccc(C(=O)O)c(O)c3)n2)s1 [Example 213] | 140 | 130
16 | Cc1nc(COc2ncccn2)sc1-c1cccc(-c2csc(C(=O)O)n2)n1 [Example 87] | 8700 | 3400
17 | Cc1nc(COc2ccn(C)n2)sc1-c1csc(-c2cc(O)c(C(=O)O)cc2F)n1 [Example 219] | 65 | 120
18 | Cc1nc(COC2CCCOC2)sc1-c1cccc(-c2cc(C(=O)O)cs2)n1 (centres unmarked) [Example 49] | 520 | 350
19 | Cc1ccc(Cc2nc(C)c(-c3cccc(-c4ccc(C(=O)O)c(O)c4)c3)s2)cn1 [Example 257] | 160 | 360
20 | COC(=O)NCc1nc(C)c(-c2csc(-c3cc(C)c(C(=O)O)c(O)c3)n2)s1 [Example 208] | 420 | 360
21 | Cc1nc(CNC(=O)C2CC2)sc1-c1ccc(-c2ccc(C(=O)O)c(O)c2)s1 [Example 245] | 820 | 690
22 | COC(=O)NCc1nc(C)c(-c2cccc(-c3cc(O)c(C(=O)O)cc3F)n2)s1 [Example 235] | 140 | 110

Row | Compound | EC50 [1] [nM] | IC50 (hBPGM) [nM]
23 | Cc1nc(COc2ncccn2)sc1-c1cccc(-c2ccc(C(=O)O)c(F)c2)n1 [Example 96] | 10 | 1300
24 | Cc1nc(COc2ccccn2)sc1-c1cccc(-c2cc(O)c(C(=O)O)cc2F)n1 [Example 164] | 70 | 170
25 | Cc1nc(CNC(=O)c2cccnn2)sc1-c1csc(-c2cc(O)c(C(=O)O)cc2F)n1 [Example 197] | 220 | 24
26 | Cc1nc(Cc2ccccc2)sc1-c1csc(-c2ccc(C(=O)O)c(O)c2)n1 [Example 280] | 140 | 330
27 | COCCOCCOCCOCCOCC(=O)NCc1nc(C)c(-c2csc(-c3ccc(C(=O)O)c(O)c3)n2)s1 [Example 121] | 3200 | 1800
28 | Cc1nc(CNC(=O)C2COC2)sc1-c1cccc(-c2ccc(C(=O)O)c(O)c2)c1 [Example 247] | 3900 | 1000
29 | Cc1nc(CNC(=O)C2CC2)sc1-c1csc(-c2cc(O)c(C(=O)O)cc2F)n1 [Example 232] | 93 | 60
30 | Cc1nc(Cc2cccnc2)sc1-c1cccc(-c2ccc(C(=O)O)c(O)c2)c1 [Example 273] | 170 | 390
31 | Cc1nc(CNc2ccccn2)sc1-c1cccc(-c2ccc(C(=O)O)c(O)c2)c1 [Example 246] | 110 | 820
32 | Cc1nc(CNC(=O)OCCN(C)C)sc1-c1csc(-c2cc(O)c(C(=O)O)cc2F)n1 [Example 114] | 170 | 150
33 | Cc1nc(COC(N)=O)sc1-c1cccc(-c2ccc(C(=O)O)c(O)c2)c1 [Example 252] | 1000 | 1000
34 | Cc1nc(Cc2cccnc2)sc1-c1csc(-c2ccc(C(=O)O)c(O)c2)n1 [Example 250] | 290 | 250
35 | Cc1nc(CNC(=O)C2CCC2)sc1-c1csc(-c2cc(O)c(C(=O)O)cc2F)n1 [Example 220] | 63 | 52
36 | Cc1nc(C)c(-c2csc(-c3cc(O)c(C(=O)O)cn3)n2)s1 [Example 284] | 2900 | 2800
37 | Cc1nc(COc2ncccn2)sc1-c1cccc(-c2ccc(C(=O)O)c(O)c2)c1 [Example 142] | 130 | 190
38 | COC(=O)NCc1nc(C)c(-c2cccc(-c3ccc(C(=O)O)c(O)c3)c2)s1 [Example 272] | 520 | 290
39 | CC(=O)Nc1nc(C)c(-c2csc(-c3cc(O)c(C(=O)O)cc3F)n2)s1 [Example 194] | 140 | 250
40 | COCCNCc1nc(C)c(-c2csc(-c3cc(O)c(C(=O)O)cc3F)n2)s1 [Example 175] | 320 | 520
41 | Cc1nc(C(=O)c2ccn(C)n2)sc1-c1csc(-c2ccc(C(=O)O)c(O)c2)n1 [Example 190] | 610 | 360
42 | Cc1nc(CNc2ncccn2)sc1-c1cccc(-c2ccc(C(=O)O)cc2)n1 [Example 63] | > 25000 | 630
43 | CC(=O)Nc1cccc(OCc2nc(C)c(-c3csc(-c4cc(O)c(C(=O)O)cc4F)n3)s2)n1 [Example 145] | 50 | 250
44 | Cc1nc(CNC(=O)C(C)(C)C)sc1-c1cccc(-c2ccc(C(=O)O)c(O)c2)c1 [Example 81] | 1100 | 450

Row | Compound | EC50 [1] [nM] | IC50 (hBPGM) [nM]
45 | Cc1nc(COc2ncccn2)sc1-c1cccc(-c2ccc(C(=O)O)cc2F)n1 [Example 83] | 1400 | 360
46 | Cc1nc(CNC(=O)C2CCN(C)C2)sc1-c1csc(-c2cc(O)c(C(=O)O)cc2F)n1 (centres unmarked) [Example 127] | 420 | 490
47 | CCOC(=O)NCc1nc(C)c(-c2csc(-c3cc(O)c(C(=O)O)cc3F)n2)s1 [Example 227] | 90 | 76
48 | Cc1nc(Cn2cccn2)sc1-c1cccc(-c2ccc(C(=O)O)c(O)c2)c1 [Example 286] | 3100 | 810
49 | Cc1nc(COc2ccc(Cl)cn2)sc1-c1cccc(-c2ccc(C(=O)O)c(O)c2)c1 [Example 74] | 1100 | 1800
50 | Cc1nc(CNc2ncccn2)sc1-c1cccc(-c2ccc(C(=O)O)cc2)c1 [Example 80] | 1700 | 220
51 | Cc1nc(C)c(-c2nc(-c3ccc(C(=O)O)c(O)c3)co2)s1 [Example 275] | > 25000 | 5000
52 | Cc1nc(COc2ccccn2)sc1-c1csc(-c2cc(O)c(C(=O)O)cc2F)n1 [Example 163] | 60 | 170
53 | Cc1nc(Cc2ccccc2)sc1-c1cccc(-c2cc(O)c(C(=O)O)cc2F)c1 [Example 105] | 290 | 1600
54 | Cc1nc(C)c(-c2csc(-c3ccc(C(=O)O)c(O)c3F)n2)s1 [Example 240] | 2500 | 2300
55 | Cc1nc(CNC2CCCCC2)sc1-c1csc(-c2cc(O)c(C(=O)O)cc2F)n1 [Example 174] | 230 | 530
56 | Cc1nc(COC(=O)N(C)CCN(C)C)sc1-c1csc(-c2cc(O)c(C(=O)O)cc2F)n1 [Example 113] | 170 | 130
57 | Cc1nc(CNC(=O)N(C)C)sc1-c1csc(-c2cc(O)c(C(=O)O)cc2F)n1 [Example 226] | 110 | 56
58 | Cc1nc(CNC(=O)OC(C)C)sc1-c1csc(-c2cc(O)c(C(=O)O)cc2F)n1 [Example 234] | 80 | 84
59 | COC(=O)NCc1nc(C)c(-c2csc(-c3ccc(C(=O)O)c(O)c3)c2)s1 [Example 166] | 70 | 250
60 | Cc1nc(Cc2ccccn2)sc1-c1cccc(-c2ccc(C(=O)O)c(O)c2)c1 [Example 282] | 110 | 750
61 | Cc1nc(COC(=O)N(C)C)sc1-c1csc(-c2cc(O)c(C(=O)O)cc2F)n1 [Example 158] | > 25000 | 44
62 | Cc1nc(CNC(=O)N2CCCC2)sc1-c1csc(-c2cc(O)c(C(=O)O)cc2F)n1 [Example 198] | 190 | 50
63 | Cc1nc(COc2cccnn2)sc1-c1csc(-c2cc(O)c(C(=O)O)cc2F)n1 [Example 131] | 40 | 42
64 | Cc1nc(C)c(-c2cccc(-c3cc(O)c(C(=O)O)cc3F)n2)s1 [Example 259] | > 25000 | 570
